This note sets out measurements from patent US20250034182A1, “PHOSPHOLIPID COMPOUNDS AND METHODS OF MAKING AND USING THE SAME” (priority 2021, published 2025).

What all share (assay type): cell-based
The subject of data set [1] is Human Rhinovirus 1B (HRV1B) in H1-HeLa cells. Nature of the data set: H1-HeLa HRV-CTG EC50, HRV1B (Example Z). The following applies: Rhinovirus A, 96 h, MOI 0.5, 4 days, Celltiter-Glo, read-out: HRV 1B HELA EC50 (nM) (per Ex. Z). From the text: (§1) H1-Hela cell line (ATCC, Manassas, VA, Cat #CRL-1958) was maintained in Dulbecco's […] (DMEM) (Corning, New York, NY, Cat #15-018CM) supplemented with 10% fetal bovine serum (FBS) (Hyclone, Logan, UT, Cat #SH30071-03), and 1× Penicillin-Streptomycin-L-Glutamine (Coming, New York, NY, Cat #30-009-C1). Cells were passaged 2 times per week to maintain sub-confluent densities and were used for experiments at passage 5-30. The Human Rhinovirus 1B (HRV1B) (ATCC, Manassas, VA, Cat #VR-1645), Human Rhinovirus 14 (HRV14) (ATCC, Manassas, VA, Cat #VR-284), and Human Rhinovirus 16 (HRV16) (ATCC, Manassas, VA, Cat #BR-283) was obtained through ATCC. Viral infection was monitored by determining viability of H1-HeLa cells as described below.
(§2) Test molecules are prepared in 100% DMSO in 384-well polypropylene plates (Greiner, Monroe, NC, Cat #784201) with 8 compounds per plate in grouped replicates of 4 at 10 serially diluted concentrations (1:3). The serially diluted compounds were transferred to low dead volume Echo plates (Labcyte, Sunnyvale, CA, Cat #LP-0200).
(§3) The test compounds were spotted to 384-well assay plates (Greiner, Monroe, NC, Cat #781091) at 200 nL per well using an Echo acoustic dispenser (Labcyte, Sunnyvale, CA). H1-HeLa cells were harvested and suspended in DMEM (supplemented with 2% FBS and 1× Penicillin-Streptomycin-L-Glutamine) and seeded to the pre-spotted assay plates at 5,000 cells per well in 30 μL. HRV1B, HRV14, and HRV16 was diluted in DMEM (supplemented with 2% FBS and 1× Penicillin-Streptomycin-L-Glutamine) at 97.1 million Infectious Units (IU) per mL, 151 million IU per mL and 221 million IU per mL respectively. 10 μL of virus per well was added to the assay plates containing cells and compounds, for an MOI of 0.5, 1.0, and 0.25 respectively. The assay plates were incubated for 4 days at 37° C. and 5% CO2. At the end of incubation, Celltiter-Glo (Promega, Madison, WI, Cat #G7573) was prepared. The assay plates and Celltiter-Glo reagent were equilibrated to room temperature for at least 15 minutes. 40 μL per well of Celltiter-Glo reagent was added and the plates were incubated at room temperature for 15 minutes before reading the luminescence signal on an EnVision multimode plate reader (Perkin Elmer, Waltham, MA). Rupintrivir was used as positive control and DMSO was used as negative control. Values were normalized to the positive and negative controls (as 0% and 100% replication, respectively) and data was fitted using non-linear regression analysis by Gilead's dose response tool. The EC50 value for each compound was defined as the concentration reducing viral replication by 50%.
On the technique in general: ATP-based viability assays read luminescence as a measure of living cells.

Data set [2] has as its system Human Rhinovirus 14 (HRV14) in H1-HeLa cells. In words: H1-HeLa HRV-CTG EC50, HRV14 (Example Z). The following applies: Rhinovirus B, HRV14, 96 h, MOI 1.0, 4 days, Celltiter-Glo, read-out: HRV14 HELA EC50 (nM) (per Ex. Z).
From the text: as §1, §2, §3

Data set [3] in a line: RSV NHBE CC50 384 V2 (per Ex. U). The following applies: human.
Data set [4] concerns Respiratory syncytial virus recombinant with luciferase (RSV-Luc5) in NHBE cells. Nature of the data set: NHBE RSV-Luc5 384-well assay (EC50 RSVFLUC NHBE-384, Example U). The following applies: human respiratory syncytial virus, 72 h, read-out: RSV FLuc NHBE 384 EC50 (v2) (nM) (per Ex. U). The protocol: Normal Human Bronchial Epithelial (NHBE) cells were purchased from Lonza (Walkersville, MD Cat #CC2540) and maintained in BEGM Bronchial Epithelial Cell (Growth Medium BulletKit (Lonza CC-3170).
Cells were thawed, expanded, and were used for experiments at passage 2. Respiratory syncytial virus recombinant with luciferase (RSV-Luc5) (≥1×10^7 Infectious Units/ml (IU/ml) determined by TCID50) was purchased from Microbiologics (Saint Cloud, MN). Viral replication was determined in NHBE cells in the following manner.
Compounds are prepared in 100% DMSO in 384-well polypropylene plates (Greiner, Monroe, NC, Cat #784201) with 8 compounds per plate in grouped replicates of 4 at 10 serially diluted concentrations (1:3). The serially diluted compounds were transferred to low dead volume Echo plates (Labcyte, Sunnyvale, CA, Cat #LP-0200).
The test compounds were spotted to 384-well assay plates (Greiner, Monroe, NC, Cat #781091) at 200 nL per well. NHBE cells were harvested and suspended in BEGM Bronchial Epithelial Cell Growth Medium BulletKit and seeded to the pre-spotted assay plates at 5,000 cells per well in 30 μL. RSV-Luc5 virus was diluted in BEGM Bronchial Epithelial Cell Growth Medium BulletKit at 500,000 Infectious Units (IU) per mL and 10 μL per well was added to the assay plates containing cells and compounds, for an MOI of 1. The assay plates were incubated for 3 days at 37° C. and 5% CO2. At the end of incubation, One-Glo reagent (Promega, Madison, WI, Cat #E6120) was prepared. The assay plates and One-Glo reagent were equilibrated to room temperature for at least 15 minutes. 40 μL per well of One-Glo reagent was added and the plates were incubated at room temperature for 15 minutes before reading the luminescence signal on an EnVision multimode plate reader (Perkin Elmer, Waltham, MA). Remdesivir was used as positive control and DMSO was used as negative control. Values were normalized to the positive and negative controls (as 0% and 100% replication, respectively) and data was fitted using non-linear regression analysis by Gilead's dose response tool. The EC50 value for each compound was defined as the concentration reducing the viral replication by 50%.

Data set [5] can be described thus: RSV HEP2-CC50-384-V2 (per Ex. V). The following applies: human.

Where only a bound is given, the exact number is not on record here.

Usually EC50 stands for the midpoint of the concentration-response curve. One may read the CC50 as the concentration at which the toxic effect on the cells reaches its halfway point. Read a high CC50 as better tolerance by the cells.

For the compound `CCCCCCCCCCCCCCCCCCOC[C@H](COP(=O)(O)OC[C@@]1(C#N)O[C@@H](c2ccc3c(N)ncnn23)[C@H](O)[C@@H]1O)OCc1cc(F)cc(C#N)c1` [Compound 1, ((2R,3S,4R,5S)-5-(4-aminopyrrolo[2,1-f][1,2,4]triazin-7-yl)-2-cyano-3,4-dihydroxytetrahydrofuran-2-yl)methyl ((R)-2-((3-cyano-5-fluorobenzyl)oxy)-3-(octadecyloxy)propyl) hydrogen phosphate], the EC50 is 4 nM in data set [1], 8 nM in data set [2] and 54 nM in data set [4]. In addition, the CC50 at 3 days in data set [3] was 2400 nM; in data set [5], above 31200 nM.
Taken in the same sequence, the figures for `CCCCCCCCCCCCCCCCCCOC[C@H](COP(=O)(O)OC[C@@]1(C#N)O[C@@H](c2ccc3c(N)ncnn23)[C@H](O)[C@@H]1O)OCc1ccc(C#N)c(Cl)c1` [Compound 7, ((2R,3S,4R,5S)-5-(4-aminopyrrolo[2,1-f][1,2,4]triazin-7-yl)-2-cyano-3,4-dihydroxytetrahydrofuran-2-yl)methyl ((R)-2-((3-chloro-4-cyanobenzyl)oxy)-3-(octadecyloxy)propyl) hydrogen phosphate] were 38 nM, 50 nM, 36 nM, 5960 nM and above 49900 nM.
As for `CCCCCCCCCCCCCCCCCCOC[C@H](COP(=O)(O)OC[C@@]1(C#N)O[C@@H](c2ccc3c(N)ncnn23)[C@H](O)[C@@H]1O)OCc1ccc(C#N)c(-n2cncn2)c1` [Compound 16, ((2R,3S,4R,5S)-5-(4-aminopyrrolo[2,1-f][1,2,4]triazin-7-yl)-2-cyano-3,4-dihydroxytetrahydrofuran-2-yl)methyl ((R)-2-((4-cyano-3-(1H-1,2,4-triazol-1-yl)benzyl)oxy)-3-(octadecyloxy)propyl) hydrogen phosphate], the figures for the EC50 in data set [1], in data set [2] and in data set [4] were 5 nM, 11 nM and below 3 nM, respectively. The CC50 at 3 days in data set [3] was 4610 nM; in data set [5] it was above 41500 nM.
With `CCCCCCCCCCCCCCCCCCOC[C@H](COP(=O)(O)OC[C@@]1(C#N)O[C@@H](c2ccc3c(N)ncnn23)[C@H](O)[C@@H]1O)OCc1ccc(C#N)nc1` [Compound 19, ((2R,3S,4R,5S)-5-(4-aminopyrrolo[2,1-f][1,2,4]triazin-7-yl)-2-cyano-3,4-dihydroxytetrahydrofuran-2-yl)methyl ((R)-2-((6-cyanopyridin-3-yl)methoxy)-3-(octadecyloxy)propyl) hydrogen phosphate], in data set [5], the CC50 at 3 days worked out at 46400 nM.
`CCCCCCCCCCCCCCCCCCOC[C@H](COP(=O)(O)OC[C@@]1(C#N)O[C@@H](c2ccc3c(N)ncnn23)[C@H](O)[C@@H]1O)Oc1cccc(C#N)n1` [Compound 21, ((2R,3S,4R,5S)-5-(4-aminopyrrolo[2,1-f][1,2,4]triazin-7-yl)-2-cyano-3,4-dihydroxytetrahydrofuran-2-yl)methyl ((R)-2-((6-cyanopyridin-2-yl)oxy)-3-(octadecyloxy)propyl) hydrogen phosphate]: the figures for the EC50 in data set [1], in data set [2] and in data set [4] were 35 nM, 60 nM and 29 nM, respectively. In addition, the CC50 at 3 days in data set [3] is 3350 nM; in data set [5], 39700 nM.
In the case of `CCCCCCCCCCCCCCCCC[C@H](COP(=O)(O)OC[C@@]1(C#N)O[C@@H](c2ccc3c(N)ncnn23)[C@H](O)[C@@H]1O)OCc1cc(Cl)cc(C#N)c1` [Compound 76, ((2R,3S,4R)-5-(4-aminopyrrolo[2,1-f][1,2,4]triazin-7-yl)-2-cyano-3,4-dihydroxytetrahydrofuran-2-yl)methyl ((R)-2-((3-chloro-5-cyanobenzyl)oxy)nonadecyl) hydrogen phosphate], the CC50 at 3 days in data set [3] was 3550 nM; in data set [5], 33700 nM. For the same compound, the EC50 in data set [4] is 113 nM.
Take `CCCCCCCCCCCCCCCCCC[C@H](COP(=O)(O)OC[C@@]1(C#N)O[C@@H](c2ccc3c(N)ncnn23)[C@H](O)[C@@H]1O)OCc1cc(Cl)cc(C#N)c1` [Compound 81, ((2R,3S,4R,5S)-5-(4-aminopyrrolo[2,1-f][1,2,4]triazin-7-yl)-2-cyano-3,4-dihydroxytetrahydrofuran-2-yl)methyl ((R)-2-((3-chloro-5-cyanobenzyl)oxy)icosyl) hydrogen phosphate]: the CC50 at 3 days in data set [3] is 2480 nM; in data set [5], 23000 nM. Also, the EC50 in data set [4] turned out to be 83 nM.
Taken in the same sequence, the figures for `CCCCCCCCCCCCCCCCCCC[C@H](COP(=O)(O)OC[C@@]1(C#N)O[C@@H](c2ccc3c(N)ncnn23)[C@H](O)[C@@H]1O)OCc1cc(Cl)cc(C#N)c1` [Compound 82, ((2R,3S,4R,5S)-5-(4-aminopyrrolo[2,1-f][1,2,4]triazin-7-yl)-2-cyano-3,4-dihydroxytetrahydrofuran-2-yl)methyl ((R)-2-((3-chloro-5-cyanobenzyl)oxy)henicosyl) hydrogen phosphate] were 6120 nM, 29000 nM and 147 nM.
Taken in the same sequence, the figures for `CCCCCCCCCCCCCCCCCC[C@H](COP(=O)(O)OC[C@@]1(C#N)O[C@@H](c2ccc3c(N)ncnn23)[C@H](O)[C@@H]1O)OCc1cc(F)cc(C#N)c1` [Compound 84, ((2R,3S,4R,5S)-5-(4-aminopyrrolo[2,1-f][1,2,4]triazin-7-yl)-2-cyano-3,4-dihydroxytetrahydrofuran-2-yl)methyl ((R)-2-((3-cyano-5-fluorobenzyl)oxy)icosyl) hydrogen phosphate] were 24500 nM, above 50000 nM and 9 nM.
Taken in the same sequence, the figures for `CCCCCCCCCCCCCCCCOC[C@@H](COP(=O)(O)OC[C@@]1(C#N)O[C@@H](c2ccc3c(N)ncnn23)[C@H](O)[C@@H]1O)OCc1cc(F)cc(C#N)c1` [Compound 88, ((2R,3S,4R,5S)-5-(4-aminopyrrolo[2,1-f][1,2,4]triazin-7-yl)-2-cyano-3,4-dihydroxytetrahydrofuran-2-yl)methyl ((S)-2-((3-cyano-5-fluorobenzyl)oxy)-3-(hexadecyloxy)propyl) hydrogen phosphate] were 7530 nM, 36600 nM and 38 nM.
